According to ChEMBL document CHEMBL3875216, “Synthesis of antimicrobial glucosamides as bacterial quorum sensing mechanism inhibitors” (Bioorg Med Chem, 2017):

Columns and labels:
Pseudomonas aeruginosa [1] = experiment: Growth inhibition of Pseudomonas aeruginosa MH602 at 1 mM after 24 hrs relative to control; settings: MH602, 24 h, read-out: GI
[2] = system: Pseudomonas aeruginosa PA14; experiment: Inhibition of quorum sensing-regulated pyocyanin production in Pseudomonas aeruginosa PA14 at 2 mM after 24 hrs relative to control
Pseudomonas aeruginosa [3] = experiment: Inhibition of LasR-dependent quorum sensing activity in Pseudomonas aeruginosa MH602 harboring GFP-fused […] LasB promoter assessed as inhibition of 3-oxo-dodecanoyl HSL-induced GFP expression at 2 mM measured after 24 hrs by fluorescence assay relative to control
Escherichia coli [4] = experiment: Growth inhibition of Escherichia coli MT102 at 2 mM after 8 hrs relative to control; settings: MT102, 8 h, read-out: GI
Pseudomonas aeruginosa [5] = experiment: Growth inhibition of Pseudomonas aeruginosa MH602 at 500 uM after 8 hrs relative to control; settings: MH602, 8 h, read-out: GI
Pseudomonas aeruginosa [6] = experiment: Growth inhibition of Pseudomonas aeruginosa PA14 at 2 mM after 24 hrs relative to control; settings: 2000 µM
[7] = system: Pseudomonas aeruginosa PA14; experiment: Inhibition of quorum sensing-regulated biofilm formation in Pseudomonas aeruginosa PA14 at 2 mM after overnight incubation by crystal violet staining based assay relative to control
Escherichia coli [8] = experiment: Growth inhibition of Escherichia coli MT102 at 1 mM after 24 hrs relative to control; settings: MT102, 24 h, read-out: GI
Escherichia coli [9] = experiment: Inhibition of LuxR-dependent quorum sensing activity in Escherichia coli MT102 harboring pJBA132 assessed as inhibition of OHHL-induced GFP expression at 1 mM measured after 24 hrs by fluorescence assay relative to control
Pseudomonas aeruginosa [10] = experiment: Growth inhibition of Pseudomonas aeruginosa MH602 at 500 uM after 24 hrs relative to control; settings: MH602, 24 h, read-out: GI
Pseudomonas aeruginosa [11] = experiment: Growth inhibition of Pseudomonas aeruginosa MH602 at 2 mM after 8 hrs relative to control; settings: MH602, 8 h, read-out: GI
Escherichia coli [12] = experiment: Growth inhibition of Escherichia coli MT102 at 2 mM after 24 hrs relative to control; settings: MT102, 24 h, read-out: GI
Escherichia coli [13] = experiment: Inhibition of LuxR-dependent quorum sensing activity in Escherichia coli MT102 harboring pJBA132 assessed as inhibition of OHHL-induced GFP expression at 2 mM measured after 8 hrs by fluorescence assay relative to control
Escherichia coli [14] = experiment: Growth inhibition of Escherichia coli MT102 at 500 uM after 24 hrs relative to control; settings: MT102, 24 h, read-out: GI
Pseudomonas aeruginosa [15] = experiment: Growth inhibition of Pseudomonas aeruginosa MH602 at 2 mM after 24 hrs relative to control; settings: MH602, 24 h, read-out: GI
Pseudomonas aeruginosa [16] = experiment: Inhibition of LasR-dependent quorum sensing activity in Pseudomonas aeruginosa MH602 harboring GFP-fused […] LasB promoter assessed as inhibition of 3-oxo-dodecanoyl HSL-induced GFP expression at 500 uM measured after 8 hrs by fluorescence assay relative to control
Pseudomonas aeruginosa [17] = experiment: Growth inhibition of Pseudomonas aeruginosa MH602 at 1 mM after 8 hrs relative to control; settings: MH602, 8 h, read-out: GI
Escherichia coli [18] = experiment: Inhibition of LuxR-dependent quorum sensing activity in Escherichia coli MT102 harboring pJBA132 assessed as inhibition of OHHL-induced GFP expression at 2 mM measured after 24 hrs by fluorescence assay relative to control
Escherichia coli [19] = experiment: Growth inhibition of Escherichia coli MT102 at 500 uM after 8 hrs relative to control; settings: MT102, 8 h, read-out: GI
Escherichia coli [20] = experiment: Growth inhibition of Escherichia coli MT102 at 1 mM after 8 hrs relative to control; settings: MT102, 8 h, read-out: GI
Escherichia coli [21] = experiment: Inhibition of LuxR-dependent quorum sensing activity in Escherichia coli MT102 harboring pJBA132 assessed as inhibition of OHHL-induced GFP expression at 500 uM measured after 8 hrs by fluorescence assay relative to control
Pseudomonas aeruginosa [22] = experiment: Inhibition of LasR-dependent quorum sensing activity in Pseudomonas aeruginosa MH602 harboring GFP-fused […] LasB promoter assessed as inhibition of 3-oxo-dodecanoyl HSL-induced GFP expression at 500 uM measured after 24 hrs by fluorescence assay relative to control
Pseudomonas aeruginosa [23] = experiment: Inhibition of LasR-dependent quorum sensing activity in Pseudomonas aeruginosa MH602 harboring GFP-fused […] LasB promoter assessed as inhibition of 3-oxo-dodecanoyl HSL-induced GFP expression at 2 mM measured after 8 hrs by fluorescence assay relative to control
Pseudomonas aeruginosa [24] = experiment: Inhibition of LasR-dependent quorum sensing activity in Pseudomonas aeruginosa MH602 harboring GFP-fused […] LasB promoter assessed as inhibition of 3-oxo-dodecanoyl HSL-induced GFP expression at 1 mM measured after 8 hrs by fluorescence assay relative to control
Escherichia coli [25] = experiment: Inhibition of LuxR-dependent quorum sensing activity in Escherichia coli MT102 harboring pJBA132 assessed as inhibition of OHHL-induced GFP expression at 1 mM measured after 8 hrs by fluorescence assay relative to control
Pseudomonas aeruginosa [26] = experiment: Inhibition of LasR-dependent quorum sensing activity in Pseudomonas aeruginosa MH602 harboring GFP-fused […] LasB promoter assessed as inhibition of 3-oxo-dodecanoyl HSL-induced GFP expression at 1 mM measured after 24 hrs by fluorescence assay relative to control

| SMILES | inhibition at 1000 µM (Pseudomonas aeruginosa [1]) [%] | inhibition [2] [%] | inhibition (Pseudomonas aeruginosa [3]) [%] | inhibition at 2000 µM (Escherichia coli [4]) [%] | inhibition at 500 µM (Pseudomonas aeruginosa [5]) [%] | growth inhibition (GI) (Pseudomonas aeruginosa [6]) | inhibition [7] [%] | inhibition at 1000 µM (Escherichia coli [8]) [%] | inhibition (Escherichia coli [9]) [%] | inhibition at 500 µM (Pseudomonas aeruginosa [10]) [%] | inhibition at 2000 µM (Pseudomonas aeruginosa [11]) [%] | inhibition at 2000 µM (Escherichia coli [12]) [%] | inhibition (Escherichia coli [13]) [%] | inhibition at 500 µM (Escherichia coli [14]) [%] | inhibition at 2000 µM (Pseudomonas aeruginosa [15]) [%] | inhibition (Pseudomonas aeruginosa [16]) [%] | inhibition at 1000 µM (Pseudomonas aeruginosa [17]) [%] | inhibition at 500 µM (Escherichia coli [19]) [%] | inhibition at 1000 µM (Escherichia coli [20]) [%] | inhibition (Pseudomonas aeruginosa [24]) [%] | other results |
| --- | --- | --- | --- | --- | --- | --- | --- | --- | --- | --- | --- | --- | --- | --- | --- | --- | --- | --- | --- | --- | --- |
| CCCCCCCCCCCC(=O)N[C@H]1[C@H](OC(C)=O)O[C@H](COC(C)=O)[C@@H](OC(C)=O)[C@@H]1OC(C)=O | 0 | 19.7 | 35.3 | 21.8 | 0 | Non-Toxic | 3.5 | 13.4 | 31.5 | 0 | 1.2 | 15 | 1.8 | 12.2 | 0 | 12.8 | 0 | 0 | 0 |  | inhibition (Escherichia coli [18]): 59.7% |
| O=C(Cc1ccc(Br)cc1)N[C@@H]1[C@@H](O)[C@H](O)[C@@H](CO)O[C@H]1O | 1.6 | 8.6 |  | 0 | 0 | Non-Toxic | 17.3 | 5.9 | 4.6 | 1.8 | 0 | 6.1 | 15.2 | 3 | 4 | 6.6 | 1.8 | 0 | 0 | 14.3 | inhibition (Escherichia coli [21]): 11.9%; inhibition (Pseudomonas aeruginosa [22]): 2.4%; inhibition (Pseudomonas aeruginosa [23]): 15.3%; inhibition (Escherichia coli [18]): 1.1%; inhibition (Escherichia coli [25]): 6.5% |
| CCCCCCCC(=O)N[C@@H]1[C@@H](O)[C@H](O)[C@@H](CO)O[C@H]1O | 0 | 11.7 | 21.3 | 30.7 | 3.4 | Non-Toxic | 14 | 4.4 | 48.2 | 0 | 21.3 | 0 | 16.7 | 0 | 65.4 | 17.5 | 0 | 0 | 10.6 | 12.2 | inhibition (Pseudomonas aeruginosa [23]): 23.2%; inhibition (Escherichia coli [18]): 45.7% |
| CCCCCCCCCC(=O)N[C@H]1[C@H](OC(C)=O)O[C@H](COC(C)=O)[C@@H](OC(C)=O)[C@@H]1OC(C)=O | 1.2 |  | 17.2 | 30.6 | 0 | Non-Toxic | 46.9 | 12.6 | 5.1 | 0 | 10.2 | 15.9 | 48.1 | 11.1 | 0 | 10.2 | 7.8 | 12.8 | 0 | 7 | inhibition (Pseudomonas aeruginosa [26]): 7.8%; inhibition (Escherichia coli [18]): 35.5% |
| CCCCCC(=O)CC(=O)N[C@H]1[C@H](OC(C)=O)O[C@H](COC(C)=O)[C@@H](OC(C)=O)[C@@H]1OC(C)=O | 0 | 1.9 | 2.5 | 9.2 | 0 | Non-Toxic | 19.5 | 13.2 |  | 4.2 | 0 | 20.8 | 7.9 | 2.3 | 0 | 4.9 | 0 | 0 | 2.3 | 8.9 | inhibition (Escherichia coli [21]): 7.7%; inhibition (Pseudomonas aeruginosa [22]): 3.3%; inhibition (Pseudomonas aeruginosa [23]): 18.9%; inhibition (Escherichia coli [25]): 2.1% |
| O=C(Cc1ccc(F)cc1)N[C@@H]1[C@@H](O)[C@H](O)[C@@H](CO)O[C@H]1O | 3 | 6.6 | 2.9 | 0 | 0 | Non-Toxic | 5.1 | 8.8 | 2 | 1.4 | 0 | 15.8 | 12.6 | 19.4 | 0 | 9.2 | 0 | 0 | 0 | 29 | inhibition (Escherichia coli [21]): 2.4%; inhibition (Pseudomonas aeruginosa [23]): 31.3%; inhibition (Escherichia coli [25]): 3.6% |
